According to US5541199A, “Chroman-2-ylmethylamino derivatives” (American Home Products Corporation, priority 1995, dated 1996):

Columns and labels:
D2 [1] = biological target: T1, D2 (Rattus norvegicus, UniProt P61169); assay: Affinity for the dopamine D-2 receptor: 3H-spiroperidol (Spiper.) binding, homogenized limbic brain tissue; parameters: homogenized limbic brain tissue is incubated with; from tissue; host or cells: limbic brain tissue, homogenized
D2 [2] = biological target: T1, D2; assay: Affinity for the dopamine autoreceptor: 3H-quinpirole (Quin.) binding, homogenized rat striatal brain tissue; parameters: homogenized rat striatal brain tissue; from tissue; host or cells: rat striatal brain tissue, homogenized
α1 = α1 IC50; assay type: binding
5-HT1a = biological target: T2, 5-HT1a (Homo sapiens, UniProt P08908); assay: 5-HT1a IC50; assay type: binding
T2 sequence (P08908 1-422): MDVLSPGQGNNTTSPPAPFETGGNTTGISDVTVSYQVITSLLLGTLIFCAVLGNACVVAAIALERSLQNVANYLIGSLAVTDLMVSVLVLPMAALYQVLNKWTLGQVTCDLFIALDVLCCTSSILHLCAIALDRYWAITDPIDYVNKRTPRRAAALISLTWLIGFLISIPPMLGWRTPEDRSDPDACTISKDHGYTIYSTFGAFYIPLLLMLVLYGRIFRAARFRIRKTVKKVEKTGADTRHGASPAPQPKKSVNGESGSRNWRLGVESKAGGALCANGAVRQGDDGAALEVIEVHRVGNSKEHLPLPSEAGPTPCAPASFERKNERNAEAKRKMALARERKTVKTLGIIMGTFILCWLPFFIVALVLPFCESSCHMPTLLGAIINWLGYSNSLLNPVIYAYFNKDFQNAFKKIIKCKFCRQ

T1 sequence (P61169 whole entry): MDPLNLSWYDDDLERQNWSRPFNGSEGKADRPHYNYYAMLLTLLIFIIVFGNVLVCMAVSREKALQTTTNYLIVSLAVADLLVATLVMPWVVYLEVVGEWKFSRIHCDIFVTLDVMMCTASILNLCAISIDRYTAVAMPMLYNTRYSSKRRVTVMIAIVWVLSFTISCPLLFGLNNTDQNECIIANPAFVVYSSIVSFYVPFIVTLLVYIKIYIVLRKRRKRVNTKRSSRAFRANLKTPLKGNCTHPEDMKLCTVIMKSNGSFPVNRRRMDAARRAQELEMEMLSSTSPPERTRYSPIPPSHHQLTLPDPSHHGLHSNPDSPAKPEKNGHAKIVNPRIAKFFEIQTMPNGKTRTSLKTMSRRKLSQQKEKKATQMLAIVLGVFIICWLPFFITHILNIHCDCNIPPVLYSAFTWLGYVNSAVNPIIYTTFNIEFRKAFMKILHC

IC50 (D2 [1]): 2180 nM
IC50 (D2 [2]; 3H-quinpirole, rat striatal brain tissue): 9.29 nM
Ratio (D2 [2]; not defined in print, values match D2 Spiper. IC50 / D2 Quin. IC50): 234
IC50 (α1): 277 nM
IC50 (5-HT1a): 303 nM
SMILES: O=C1CCC(=O)N1CCCNCC1CCc2ccc(O)cc2O1 (centres unmarked) [Example 3d, 1-{3-[(7-Hydroxy-chroman-2-ylmethyl)-amino]-propyl}-pyrrolidine-2,5-dione]
